Results taken from patent publication US20100249172A1, “9-CHLORO NOSCAPINE AND ITS USE IN TREATING CANCERS, INCLUDING DRUG-RESISTANT CANCERS” (EMORY UNIVERSITY, priority 2007, published 2010).

Columns and labels:
[1] = tested on: MCF-7 cells; assay: Cell cycle analysis by flow cytometry (propidium iodide); type: cell-based, human; conditions: for G0/G1 % / G2/M % / S % / Sub-G1 %: mean ± S.E.M.; for accumulation of cells in the G2/M phase (in words): 24 hours; for percent sub-G1 cells compared with noscapine: lower doses (5 μM and 10 μM), 72 hours
Procedure: The flow cytometric evaluation of the cell cycle status was performed as described previously. Briefly, 2×10^6 cells were centrifuged, washed twice with ice-cold PBS, and fixed in 70% ethanol. Tubes containing the cell pellets were stored at 4° C. for at least 24 hours. Cells were then centrifuged at 1000×g for 10 min and the supernatant was discarded. The pellets were washed twice with 5 ml of PBS and then stained with 0.5 ml of propidium iodide (0.1% in 0.6% Triton-X in PBS) and 0.5 ml of RNase A (2 mg/ml) for 45 minutes in dark. Samples were then analyzed on a FACSCalibur flow cytometer (Beckman Coulter Inc., Fullerton, Calif.).
To investigate the precise mechanisms of cell death, the effect of 9-cloro-noscapine and other halogenated noscapine analogs on percent G2/M cells (mitotic index) and percent sub-G1 cells (apoptotic index) was examined as a function of dose and time in MCF-7 cells using fluorescence activated cell sorting (FACS) analysis. The effect of all compounds including noscapine was evaluated at three doses-5 μM, 10 μM and 25 μM for 0, 24, 48 and 72 hours of drug treatment. […] Fluorescently labeled DNA is a good indicator of cell cycle progression and cell death. An unreplicated complement of diploid (2N) DNA cells represents the G1 phase while duplicated tetraploid (4N) DNA cells represent G2 and M phases. Cells in the process of DNA duplication between diploid and tetraploid peaks represent S phase when DNA is being synthesized. Less than diploid DNA appears in populations of dying cells that degrade their DNA to different extents. Treatment of MCF-7 cells with these compounds for 0, 24, 48 and 72 hours led to profound perturbations of the cell cycle profile at 25 μM (FIGS. 3 A-D). […] The distribution of cell population over G0/G1, S, G2/M and sub-G1 phases of the cell cycle for 25 μM concentration is shown in Table 1.

[2] = biological target: tubulin; conditions: literature value [18]; read-out: dissociation constant (Kd) for binding to tubulin; cited from earlier work

Structure (SMILES)	G0/G1 % ([1]; 25 μM, 0 h)	G2/M % ([1]; 25 μM, 0 h)	S % ([1]; 25 μM, 0 h)	Sub-G1 % ([1]; 25 μM, 0 h)	G0/G1 % ([1]; 25 μM, 24 h)	G2/M % ([1]; 25 μM, 24 h)	S % ([1]; 25 μM, 24 h)	Sub-G1 % ([1]; 25 μM, 24 h)	accumulation of cells in the G2/M phase (in words) ([1]; 25 μM)	G0/G1 % ([1]; 25 μM, 48 h)	G2/M % ([1]; 25 μM, 48 h)	S % ([1]; 25 μM, 48 h)	Sub-G1 % ([1]; 25 μM, 48 h)	G0/G1 % ([1]; 25 μM, 72 h)	G2/M % ([1]; 25 μM, 72 h)	S % ([1]; 25 μM, 72 h)	percent sub-G1 cells compared with noscapine [1]	Sub-G1 % ([1]; 25 μM, 72 h)	sub-G1 population compared with noscapine ([1]; 25 μM)	Kd [2]
COc1ccc2c(c1OC)C(=O)O[C@@H]2[C@H]1c2c(c(Br)c3c(c2OC)OCO3)CCN1C [9-Br-nos]	53.3 ± 2.8%	28.9 ± 4.4%	12.7 ± 1.8%	0.2 ± 0.1%	10.4 ± 1.8%	61.9 ± 3.6%	3.4 ± 1.2%	6.9 ± 2.4%	massive accumulation of cells in the G2/M phase	6.5 ± 2.5%	43.8 ± 3.4%	2.8 ± 0.7%	35.1 ± 3.5%	4.6 ± 2.1%	33.7 ± 3.5%	2.4 ± 1.6%	higher	–	–	–
COc1ccc2c(c1OC)C(=O)O[C@@H]2[C@H]1c2c(c(F)c3c(c2OC)OCO3)CCN1C [9-F-nos]	67.7 ± 5.6%	18.5 ± 2.2%	11.9 ± 1.5%	0.2 ± 0.04%	10.8 ± 2.4%	65.9 ± 4.4%	3.8 ± 1.1%	6.8 ± 2.1%	massive accumulation of cells in the G2/M phase	7.9 ± 2.8%	43.7 ± 2.9%	3.5 ± 0.8%	34.5 ± 2.5%	5.2 ± 2.2%	34.4 ± 3.4%	3.6 ± 1.5%	higher	48.6 ± 3.3%	–	–
COc1ccc2c(c1OC)C(=O)O[C@@H]2[C@H]1c2c(c(I)c3c(c2OC)OCO3)CCN1C [9-I-nos]	60.6 ± 4.6%	23.1 ± 3.7%	13.9 ± 2.3%	0.3 ± 0.2%	17 ± 2.3%	44.5 ± 5.1%	3.1 ± 1.3%	7.7 ± 1.7%	–	15.4 ± 4.5%	25.9 ± 4.1%	2.9 ± 0.6%	28.1 ± 3.1%	17 ± 1.9%	20.7 ± 2.2%	4.9 ± 2.2%	–	30.1 ± 3.1%	slightly lower	–
COc1ccc2c(c1OC)C(=O)O[C@@H]2[C@H]1c2c(cc3c(c2OC)OCO3)CCN1C [Nos, (S)-6,7-dimethoxy-3-((R)-4-methoxy-6-methyl-5,6,7,8-tetrahydro[1,3]-dioxolo-[4,5-g]isoquinolin-5-yl)isobenzo-furan-1(3H)-one, reference compound]	54.8 ± 0.03%	29.9 ± 2.2%	13.2 ± 0.2%	0.2 ± 0.03%	18.3 ± 3.3%	50.2 ± 3.6%	3.4 ± 0.8%	10.2 ± 1.2%	–	19.8 ± 1.9%	28.07 ± 0.2%	4.1 ± 0.6%	36.8 ± 3.7%	20.5 ± 0.2%	26.3 ± 0.2%	7.06 ± 0.2%	–	36.9 ± 0.2%	–	144 ± 2.8 µM
